Data published in ChEMBL document CHEMBL1140154, “1H-cyclopentapyrimidine-2,4(1H,3H)-dione-related ionotropic glutamate receptors ligands. structure-activity relationships and identification of potent and Selective iGluR5 modulators” (J Med Chem, 2008).

Assays:
Glutamate receptor 4 [1] = molecular target: T1, Glutamate receptor 4 (Rattus norvegicus, UniProt P19493); assay: biochemical
Glutamate receptor 1 [2] = molecular target: T2, Glutamate receptor 1 (Rattus norvegicus, UniProt P19490); assay: biochemical
Glutamate receptor 3 [3] = molecular target: T3, Glutamate receptor 3 (Rattus norvegicus, UniProt P19492); assay: biochemical
[4] = molecular target: Glutamate receptor ionotropic, kainate 1 (Rattus norvegicus, UniProt P22756); assay: biochemical
[5] = molecular target: Glutamate receptor ionotropic, kainate 2 (Rattus norvegicus, UniProt P42260); assay: Displacement of [3H]kainic acid from rat recombinant iGluR6(V,C,R) receptor expressed in Sf9 cells
Glutamate receptor 1 [6] = molecular target: T2, Glutamate receptor 1; assay: Agonist activity at cyclothiazide-desensitized rat recombinant flop iGluR1 expressed in Xenopus laevis oocytes by two electrode voltage-clamp electrophysiology method; type: functional, cell-based, Oocyte
Glutamate receptor 1 [7] = molecular target: T2, Glutamate receptor 1; assay: Agonist activity at cyclothiazide-desensitized rat recombinant flip iGluR1 expressed in Xenopus laevis oocytes by two electrode voltage-clamp electrophysiology method; type: functional, cell-based, Oocyte
Glutamate receptor 3 [8] = molecular target: T3, Glutamate receptor 3; assay: Agonist activity at cyclothiazide-desensitized rat recombinant flip iGluR3 expressed in Xenopus laevis oocytes by two electrode voltage-clamp electrophysiology method; type: functional, cell-based, Oocyte
Glutamate receptor 4 [9] = molecular target: T1, Glutamate receptor 4; assay: Agonist activity at cyclothiazide-desensitized rat recombinant flip iGluR4 expressed in Xenopus laevis oocytes by two electrode voltage-clamp electrophysiology method; type: functional, cell-based, Oocyte
Glutamate receptor 1 [10] = molecular target: T4, Glutamate receptor 1 (Homo sapiens, UniProt P42261); assay: Agonist activity at cyclothiazide-desensitized human flip iGluR1 expressed in CHO-K1 cells by whole cell patch-clamp method; type: functional, cell-based
[11] = molecular target: Glutamate receptor ionotropic, kainate 1 (Homo sapiens, UniProt P39086); assay: Antagonist activity at human iGluR5(Q)1b expressed in CHO-K1 cells by whole cell patch-clamp method; type: functional, cell-based
Glutamate receptor 2 [12] = molecular target: T5, Glutamate receptor 2 (Rattus norvegicus, UniProt P19491); assay: biochemical
Glutamate receptor 1 [13] = molecular target: T4, Glutamate receptor 1; assay: Antagonist activity at human flip iGluR1 expressed in CHO-K1 cells by whole cell patch-clamp method; type: functional, cell-based
Glutamate receptor 2 [14] = molecular target: T5, Glutamate receptor 2

T5 sequence (P19491 whole entry): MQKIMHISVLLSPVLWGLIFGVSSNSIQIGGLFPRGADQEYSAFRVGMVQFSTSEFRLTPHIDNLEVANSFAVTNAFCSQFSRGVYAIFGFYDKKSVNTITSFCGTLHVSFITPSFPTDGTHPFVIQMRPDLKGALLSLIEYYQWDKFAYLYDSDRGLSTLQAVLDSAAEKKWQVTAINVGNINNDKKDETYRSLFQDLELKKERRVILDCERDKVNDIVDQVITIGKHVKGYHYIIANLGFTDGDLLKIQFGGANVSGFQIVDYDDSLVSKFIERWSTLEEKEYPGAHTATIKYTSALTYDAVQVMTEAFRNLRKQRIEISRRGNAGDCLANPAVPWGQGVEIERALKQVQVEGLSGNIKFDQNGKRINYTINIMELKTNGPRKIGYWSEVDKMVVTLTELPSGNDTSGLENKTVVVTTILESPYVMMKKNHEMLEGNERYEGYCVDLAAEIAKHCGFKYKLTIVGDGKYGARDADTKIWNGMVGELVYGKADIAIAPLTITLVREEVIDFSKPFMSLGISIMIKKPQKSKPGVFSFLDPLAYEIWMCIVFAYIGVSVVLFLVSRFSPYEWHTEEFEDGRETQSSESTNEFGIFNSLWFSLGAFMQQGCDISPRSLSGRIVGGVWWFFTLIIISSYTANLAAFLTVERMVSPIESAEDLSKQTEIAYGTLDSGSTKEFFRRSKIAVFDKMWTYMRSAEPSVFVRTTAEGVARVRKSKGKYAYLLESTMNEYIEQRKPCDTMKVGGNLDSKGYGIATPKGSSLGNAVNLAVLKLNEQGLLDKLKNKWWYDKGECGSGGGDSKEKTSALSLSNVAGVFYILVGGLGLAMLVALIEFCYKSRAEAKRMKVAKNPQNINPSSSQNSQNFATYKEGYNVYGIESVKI
T3 sequence (P19492 whole entry): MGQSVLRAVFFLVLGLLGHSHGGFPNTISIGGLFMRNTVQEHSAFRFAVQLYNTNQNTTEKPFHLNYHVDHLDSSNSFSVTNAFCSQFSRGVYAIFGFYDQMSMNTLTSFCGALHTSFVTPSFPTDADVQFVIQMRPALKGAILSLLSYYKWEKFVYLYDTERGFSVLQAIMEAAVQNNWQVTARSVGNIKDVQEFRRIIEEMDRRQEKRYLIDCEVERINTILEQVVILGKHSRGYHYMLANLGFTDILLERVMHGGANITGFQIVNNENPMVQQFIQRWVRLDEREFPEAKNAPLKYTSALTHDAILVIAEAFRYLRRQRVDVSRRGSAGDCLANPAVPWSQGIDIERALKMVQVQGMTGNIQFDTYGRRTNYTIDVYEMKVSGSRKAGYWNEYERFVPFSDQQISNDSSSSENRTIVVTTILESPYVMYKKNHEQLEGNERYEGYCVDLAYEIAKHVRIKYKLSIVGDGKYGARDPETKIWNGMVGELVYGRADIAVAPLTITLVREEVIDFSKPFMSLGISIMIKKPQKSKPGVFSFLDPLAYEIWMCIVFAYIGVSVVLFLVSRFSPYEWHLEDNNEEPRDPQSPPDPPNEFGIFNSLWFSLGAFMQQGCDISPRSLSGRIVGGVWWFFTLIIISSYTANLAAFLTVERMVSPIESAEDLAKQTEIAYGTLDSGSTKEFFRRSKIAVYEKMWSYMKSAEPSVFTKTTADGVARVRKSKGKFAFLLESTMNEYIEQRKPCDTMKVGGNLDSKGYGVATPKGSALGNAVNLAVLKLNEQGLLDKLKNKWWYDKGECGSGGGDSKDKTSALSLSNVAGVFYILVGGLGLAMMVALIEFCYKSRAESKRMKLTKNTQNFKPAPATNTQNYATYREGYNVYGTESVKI
Chain of Glutamate receptor ionotropic, kainate 1 (Rattus norvegicus, UniProt P22756) (P22756 whole entry): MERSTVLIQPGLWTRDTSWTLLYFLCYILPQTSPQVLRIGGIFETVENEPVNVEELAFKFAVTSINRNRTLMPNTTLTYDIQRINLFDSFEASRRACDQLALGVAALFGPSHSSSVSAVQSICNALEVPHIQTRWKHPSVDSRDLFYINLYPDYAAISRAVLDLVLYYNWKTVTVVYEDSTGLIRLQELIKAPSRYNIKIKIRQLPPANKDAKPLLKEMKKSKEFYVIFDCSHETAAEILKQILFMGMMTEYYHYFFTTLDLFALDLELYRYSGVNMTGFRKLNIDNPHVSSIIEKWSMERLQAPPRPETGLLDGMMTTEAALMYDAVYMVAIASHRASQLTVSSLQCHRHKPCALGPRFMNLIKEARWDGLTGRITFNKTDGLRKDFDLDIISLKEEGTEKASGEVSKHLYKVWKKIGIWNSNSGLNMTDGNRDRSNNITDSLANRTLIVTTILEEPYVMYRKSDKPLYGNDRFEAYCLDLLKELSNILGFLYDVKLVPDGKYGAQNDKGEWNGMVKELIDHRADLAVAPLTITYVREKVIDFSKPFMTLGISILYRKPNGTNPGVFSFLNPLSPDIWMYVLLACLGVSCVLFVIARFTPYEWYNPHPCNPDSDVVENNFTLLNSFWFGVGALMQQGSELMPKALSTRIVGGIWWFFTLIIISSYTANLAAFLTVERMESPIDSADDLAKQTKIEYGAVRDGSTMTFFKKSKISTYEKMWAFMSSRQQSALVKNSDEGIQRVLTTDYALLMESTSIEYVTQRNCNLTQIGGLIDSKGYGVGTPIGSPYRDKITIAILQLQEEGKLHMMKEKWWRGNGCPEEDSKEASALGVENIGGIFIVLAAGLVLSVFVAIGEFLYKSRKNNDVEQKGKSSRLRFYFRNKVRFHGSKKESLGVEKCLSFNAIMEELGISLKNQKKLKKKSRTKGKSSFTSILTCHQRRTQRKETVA
T1 sequence (P19493 whole entry): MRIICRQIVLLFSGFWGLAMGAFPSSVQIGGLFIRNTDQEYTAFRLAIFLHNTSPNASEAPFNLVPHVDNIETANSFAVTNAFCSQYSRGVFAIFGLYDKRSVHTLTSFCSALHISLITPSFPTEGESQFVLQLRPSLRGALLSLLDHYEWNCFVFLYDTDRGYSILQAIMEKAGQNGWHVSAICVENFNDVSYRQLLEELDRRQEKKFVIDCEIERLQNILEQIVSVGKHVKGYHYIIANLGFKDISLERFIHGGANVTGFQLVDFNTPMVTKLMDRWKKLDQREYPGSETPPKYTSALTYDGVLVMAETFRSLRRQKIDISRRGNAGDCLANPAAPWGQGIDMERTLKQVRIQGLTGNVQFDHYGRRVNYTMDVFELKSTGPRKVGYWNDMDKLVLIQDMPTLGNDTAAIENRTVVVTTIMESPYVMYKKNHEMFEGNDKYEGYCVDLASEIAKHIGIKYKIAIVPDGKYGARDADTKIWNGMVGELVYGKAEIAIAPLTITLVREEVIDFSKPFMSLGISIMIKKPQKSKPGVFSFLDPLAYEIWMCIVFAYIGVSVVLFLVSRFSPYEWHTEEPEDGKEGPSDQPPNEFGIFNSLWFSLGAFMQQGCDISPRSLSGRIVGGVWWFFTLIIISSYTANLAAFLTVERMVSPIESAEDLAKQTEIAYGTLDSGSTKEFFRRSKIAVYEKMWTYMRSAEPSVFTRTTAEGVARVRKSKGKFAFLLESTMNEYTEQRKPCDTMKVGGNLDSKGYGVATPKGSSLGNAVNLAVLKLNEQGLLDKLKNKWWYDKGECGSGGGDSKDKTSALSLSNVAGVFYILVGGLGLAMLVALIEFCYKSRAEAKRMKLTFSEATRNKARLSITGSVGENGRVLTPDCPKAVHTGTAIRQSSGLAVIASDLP
T2 sequence (P19490 whole entry): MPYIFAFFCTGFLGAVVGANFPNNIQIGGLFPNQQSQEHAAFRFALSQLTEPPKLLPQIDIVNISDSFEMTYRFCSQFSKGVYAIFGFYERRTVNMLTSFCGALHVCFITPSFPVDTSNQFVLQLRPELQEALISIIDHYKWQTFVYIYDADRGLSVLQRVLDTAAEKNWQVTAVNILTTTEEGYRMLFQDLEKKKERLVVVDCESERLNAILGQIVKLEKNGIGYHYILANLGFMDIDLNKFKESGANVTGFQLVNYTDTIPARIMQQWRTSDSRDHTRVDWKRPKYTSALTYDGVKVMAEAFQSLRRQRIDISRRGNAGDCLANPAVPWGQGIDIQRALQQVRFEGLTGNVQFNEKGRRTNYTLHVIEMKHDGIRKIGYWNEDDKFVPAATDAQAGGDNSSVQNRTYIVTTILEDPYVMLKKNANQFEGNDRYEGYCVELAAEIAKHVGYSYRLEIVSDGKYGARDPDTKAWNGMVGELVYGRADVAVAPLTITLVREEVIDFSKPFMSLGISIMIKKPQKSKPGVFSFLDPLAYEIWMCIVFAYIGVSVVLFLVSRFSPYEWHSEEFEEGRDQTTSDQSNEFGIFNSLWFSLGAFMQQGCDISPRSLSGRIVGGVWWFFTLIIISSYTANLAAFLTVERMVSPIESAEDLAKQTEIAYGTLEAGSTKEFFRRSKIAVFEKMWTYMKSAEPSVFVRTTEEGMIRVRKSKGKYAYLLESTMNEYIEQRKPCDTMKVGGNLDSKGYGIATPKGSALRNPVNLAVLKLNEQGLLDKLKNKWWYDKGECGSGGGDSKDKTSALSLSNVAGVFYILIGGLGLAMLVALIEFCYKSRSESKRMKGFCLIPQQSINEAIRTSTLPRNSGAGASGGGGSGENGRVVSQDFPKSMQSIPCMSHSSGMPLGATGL

Q: Which Ki (Glutamate receptor 4 [1]) does the source give for N[C@@H](Cn1cc(Cl)c(=O)[nH]c1=O)C(=O)O here?
A: Its Ki is 0.561 µM.

Q: What about the Ki (Glutamate receptor 1 [2]) of the same molecule?
A: Its Ki is 0.037 µM.

Q: What about the Ki (Glutamate receptor 3 [3]) of the same molecule?
A: Its Ki is 0.451 µM.

Q: What about the Ki [4] of the same molecule?
A: The Ki was 0.047 µM.

Q: And the Ki [5]?
A: The Ki was greater than 100 µM.

Q: With N[C@@H](Cn1cc(I)c(=O)[nH]c1=O)C(=O)O as the molecule, how does the Ki (Glutamate receptor 4 [1]) read?
A: The Ki was 0.738 µM.

Q: What about the EC50 (Glutamate receptor 1 [6]) of the same molecule?
A: The EC50 was 33.6 µM.

Q: What about the Ki (Glutamate receptor 1 [2]) of the same molecule?
A: The Ki was 0.083 µM.

Q: And the Ki (Glutamate receptor 3 [3])?
A: Its Ki is 0.976 µM.

Q: What about the Ki [4] of the same molecule?
A: Its Ki is 0.0024 µM.

Q: What about the Ki [5] of the same molecule?
A: Its Ki is greater than 100 µM.

Q: Which Ki (Glutamate receptor 4 [1]) does the source give for N[C@@H](Cn1cc(F)c(=O)[nH]c1=O)C(=O)O here?
A: The Ki was 0.123 µM.

Q: And the EC50 (Glutamate receptor 1 [7])?
A: The EC50 was 0.38 µM.

Q: And the EC50 (Glutamate receptor 3 [8])?
A: Its EC50 is 20.9 µM.

Q: What about the Ki (Glutamate receptor 1 [2]) of the same molecule?
A: The Ki was 0.0029 µM.

Q: And the Ki (Glutamate receptor 3 [3])?
A: The Ki was 0.07 µM.

Q: And the Ki [4]?
A: Its Ki is 1.38 µM.

Q: What about the EC50 (Glutamate receptor 4 [9]) of the same molecule?
A: The EC50 was 11.9 µM.

Q: What about the Ki [5] of the same molecule?
A: The Ki was greater than 100 µM.

Q: With N[C@@H](Cn1cc(Br)c(=O)[nH]c1=O)C(=O)O as the molecule, how does the EC50 (Glutamate receptor 1 [6]) read?
A: The EC50 was 2.8 µM.

Q: N[C@@H](Cn1c2c(c(=O)[nH]c1=O)CCC2)C(=O)O was tested. Which Ki (Glutamate receptor 4 [1]) did it give?
A: The Ki was 2.09 µM.

Q: And the EC50 (Glutamate receptor 1 [6])?
A: Its EC50 is 24.9 µM.

Q: What about the Ki (Glutamate receptor 1 [2]) of the same molecule?
A: Its Ki is 0.109 µM.

Q: What about the Ki (Glutamate receptor 3 [3]) of the same molecule?
A: The Ki was 1.89 µM.

Q: And the Ki [4]?
A: Its Ki is 0.044 µM.

Q: What about the Ki [5] of the same molecule?
A: Its Ki is greater than 1000 µM.

Q: Which Ki (Glutamate receptor 4 [1]) does the source give for NC(Cn1ccc(=O)[nH]c1=O)C(=O)O (stereo not given) here?
A: The Ki was 14.2 µM.

Q: And the Ki (Glutamate receptor 1 [2])?
A: The Ki was 0.41 µM.

Q: And the Ki [4]?
A: Its Ki is greater than 100 µM.

Q: And the Ki [5]?
A: Its Ki is greater than 1000 µM.

Q: Which Ki (Glutamate receptor 4 [1]) does the source give for N[C@@H](Cn1c2c(c(=O)[nH]c1=O)CSC2)C(=O)O here?
A: Its Ki is 0.288 µM.

Q: And the EC50 (Glutamate receptor 1 [10])?
A: The EC50 was 18.5 µM.

Q: And the EC50 (Glutamate receptor 1 [7])?
A: The EC50 was 11.8 µM.

Q: And the IC50 [11]?
A: Its IC50 is 0.0038 µM.

Q: And the EC50 (Glutamate receptor 3 [8])?
A: Its EC50 is 33.9 µM.

Q: What about the Ki (Glutamate receptor 1 [2]) of the same molecule?
A: The Ki was 0.058 µM.

Q: What about the Ki (Glutamate receptor 3 [3]) of the same molecule?
A: The Ki was 0.311 µM.

Q: What about the IC50 [4] of the same molecule?
A: Its IC50 is 0.0052 µM.

Q: What about the EC50 (Glutamate receptor 4 [9]) of the same molecule?
A: Its EC50 is 24.2 µM.

Q: What about the Ki [5] of the same molecule?
A: Its Ki is greater than 1000 µM.

Q: Which Ki (Glutamate receptor 4 [1]) does the source give for N[C@@H](CCn1c2c(c(=O)n(CC[C@H](N)C(=O)O)c1=O)CCC2)C(=O)O here?
A: Its Ki is greater than 100 µM.

Q: What about the Ki (Glutamate receptor 1 [2]) of the same molecule?
A: Its Ki is greater than 100 µM.

Q: What about the Ki (Glutamate receptor 3 [3]) of the same molecule?
A: Its Ki is greater than 100 µM.

Q: And the Ki [4]?
A: Its Ki is greater than 1000 µM.

Q: And the Ki (Glutamate receptor 2 [12])?
A: The Ki was greater than 100 µM.

Q: What about the Ki [5] of the same molecule?
A: The Ki was greater than 100 µM.

Q: How did the Ki (Glutamate receptor 4 [1]) turn out when CC1(C)Cc2c(n(C[C@H](N)C(=O)O)c(=O)[nH]c2=O)C1 was run?
A: The Ki was 1.59 µM.

Q: And the Ki (Glutamate receptor 1 [2])?
A: The Ki was 0.102 µM.

Q: What about the Ki (Glutamate receptor 3 [3]) of the same molecule?
A: Its Ki is 1.51 µM.

Q: And the Ki [4]?
A: The Ki was 0.976 µM.

Q: And the Ki (Glutamate receptor 2 [12])?
A: Its Ki is 0.126 µM.

Q: And the Ki [5]?
A: Its Ki is greater than 1000 µM.

Q: With N[C@@H](Cn1c(=O)[nH]c(=O)c2sccc21)C(=O)O as the molecule, how does the Ki (Glutamate receptor 4 [1]) read?
A: The Ki was 0.804 µM.

Q: What about the EC50 (Glutamate receptor 1 [10]) of the same molecule?
A: Its EC50 is 4.1 µM.

Q: And the EC50 (Glutamate receptor 1 [7])?
A: The EC50 was 7.2 µM.

Q: And the IC50 (Glutamate receptor 1 [13])?
A: Its IC50 is 0.374 µM.

Q: What about the EC50 (Glutamate receptor 2 [14]) of the same molecule?
A: Its EC50 is 11.8 µM.

Q: And the EC50 (Glutamate receptor 3 [8])?
A: The EC50 was 120 µM.

Q: And the Ki (Glutamate receptor 1 [2])?
A: Its Ki is 0.05 µM.

Q: What about the Ki (Glutamate receptor 3 [3]) of the same molecule?
A: Its Ki is 0.936 µM.

Q: And the Ki (Glutamate receptor 2 [12])?
A: The Ki was 0.112 µM.

Q: And the EC50 (Glutamate receptor 4 [9])?
A: Its EC50 is 90 µM.

Q: And the Ki [5]?
A: The Ki was greater than 1000 µM.

Q: Which Ki (Glutamate receptor 4 [1]) does the source give for N[C@H](Cn1c2c(c(=O)[nH]c1=O)CCC2)C(=O)O here?
A: Its Ki is greater than 100 µM.

Q: What about the Ki (Glutamate receptor 1 [2]) of the same molecule?
A: Its Ki is 10.4 µM.

Q: N[C@@H](CCn1c2c(c(=O)[nH]c1=O)CCC2)C(=O)O was tested. Which Ki (Glutamate receptor 4 [1]) did it give?
A: Its Ki is greater than 100 µM.

Q: And the Ki (Glutamate receptor 1 [2])?
A: The Ki was greater than 100 µM.

Q: What about the Ki (Glutamate receptor 3 [3]) of the same molecule?
A: Its Ki is greater than 100 µM.

Q: And the Ki [4]?
A: Its Ki is greater than 1000 µM.

Q: What about the Ki (Glutamate receptor 2 [12]) of the same molecule?
A: The Ki was greater than 100 µM.

Q: And the Ki [5]?
A: Its Ki is greater than 1000 µM.

Q: Which Ki (Glutamate receptor 4 [1]) does the source give for N[C@@H](Cn1c(=O)[nH]c(=O)c2cocc21)C(=O)O here?
A: The Ki was greater than 100 µM.

Q: And the Ki (Glutamate receptor 1 [2])?
A: The Ki was 35.2 µM.

Q: And the Ki (Glutamate receptor 3 [3])?
A: Its Ki is greater than 100 µM.

Q: What about the Ki [4] of the same molecule?
A: The Ki was 2.98 µM.

Q: And the Ki [5]?
A: Its Ki is greater than 1000 µM.

Q: For N[C@@H](Cn1c(=O)[nH]c(=O)c2ccccc21)C(=O)O, which Ki (Glutamate receptor 4 [1]) is on record?
A: The Ki was 15.7 µM.

Q: What about the Ki (Glutamate receptor 1 [2]) of the same molecule?
A: The Ki was 2.39 µM.

Q: And the Ki (Glutamate receptor 3 [3])?
A: The Ki was 6.91 µM.

Q: What about the Ki [4] of the same molecule?
A: The Ki was 0.49 µM.

Q: What about the Ki (Glutamate receptor 2 [12]) of the same molecule?
A: Its Ki is 3.39 µM.

Q: And the Ki [5]?
A: The Ki was greater than 1000 µM.

Q: What does the source list for NC(Cn1cc(Br)c(=O)[nH]c1=O)C(=O)O (racemic)?
A: Ki (Glutamate receptor 4 [1]): 0.656 µM; Ki (Glutamate receptor 1 [2]): 0.035 µM; Ki (Glutamate receptor 3 [3]): 0.434 µM; Ki [4]: 0.0148 µM; Ki [5]: > 100 µM

Q: Cc1onc(O)c1CC(N)C(=O)O (racemic) [(R,S)-AMPA] was tested. Which Ki [5] did it give?
A: Its Ki is greater than 1000 µM.

Q: For N[C@@H](Cn1ccc(=O)[nH]c1=O)C(=O)O [(S)-WILLARDIINE], which EC50 (Glutamate receptor 1 [6]) is on record?
A: Its EC50 is 11.5 µM.

Q: For C=C(C)[C@H]1CN[C@H](C(=O)O)[C@H]1CC(=O)O [KAINIC ACID], which Ki (Glutamate receptor 4 [1]) is on record?
A: The Ki was 3.57 µM.
